Bounds are passed on as bounds.

Assay [1] has as its system yeast strains expressing the human ApoE4. As to the kind of experiment: Yeast ApoE4 toxicity rescue assay (OD600 growth). The settings on record: 24 h; for EC50: read-out: ApoE4 EC50; for Emax: read-out: ApoE4 Emax.
The target in assay [2] is T1, SCD1 (Homo sapiens, UniProt O00767).
T1 construct: host or cells: S. cerevisiae ole1Δ strain (W303 pdr1Δ pdr3Δ background), plasmid pRS316 with TDH3 promoter and CYC1 terminator
T1 sequence (O00767 1-359): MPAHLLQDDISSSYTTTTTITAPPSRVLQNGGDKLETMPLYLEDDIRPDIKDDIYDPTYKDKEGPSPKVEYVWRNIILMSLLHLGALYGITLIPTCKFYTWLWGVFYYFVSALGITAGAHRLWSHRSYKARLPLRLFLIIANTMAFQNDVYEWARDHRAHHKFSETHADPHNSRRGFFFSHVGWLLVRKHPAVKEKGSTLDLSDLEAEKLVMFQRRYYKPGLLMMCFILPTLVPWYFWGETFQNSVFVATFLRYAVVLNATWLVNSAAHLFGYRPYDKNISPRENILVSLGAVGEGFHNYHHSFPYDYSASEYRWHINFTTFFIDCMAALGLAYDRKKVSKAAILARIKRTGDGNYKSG
Kind of assay: Growth inhibition of humanized yeast strain expressing SCD1 as sole desaturase. The settings on record: humanized yeast strain expressing SCD1. Type of assay: cell-based. Summed up:
(§1)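 ole1Δ yeast (W303 pdr1Δ pdr3Δ background) carrying plasmid-borne Ole1, SCD1 or SCD5, grown in uracil-free media; cultures pre-grown in raffinose, seeded at 2× density 0.02 in galactose media with compound. Growth read as OD600 after 24 h at 30° C. for Ole1, 40 h for SCD1/SCD5.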

The target in assay [3] is T2, Ole1 (Saccharomyces cerevisiae, UniProt P21147).
T2 construct: expressed in transfected cells; host or cells: S. cerevisiae ole1Δ strain (W303 pdr1Δ pdr3Δ background), plasmid pRS316 with TDH3 promoter and CYC1 terminator
T2 sequence (P21147 1-510): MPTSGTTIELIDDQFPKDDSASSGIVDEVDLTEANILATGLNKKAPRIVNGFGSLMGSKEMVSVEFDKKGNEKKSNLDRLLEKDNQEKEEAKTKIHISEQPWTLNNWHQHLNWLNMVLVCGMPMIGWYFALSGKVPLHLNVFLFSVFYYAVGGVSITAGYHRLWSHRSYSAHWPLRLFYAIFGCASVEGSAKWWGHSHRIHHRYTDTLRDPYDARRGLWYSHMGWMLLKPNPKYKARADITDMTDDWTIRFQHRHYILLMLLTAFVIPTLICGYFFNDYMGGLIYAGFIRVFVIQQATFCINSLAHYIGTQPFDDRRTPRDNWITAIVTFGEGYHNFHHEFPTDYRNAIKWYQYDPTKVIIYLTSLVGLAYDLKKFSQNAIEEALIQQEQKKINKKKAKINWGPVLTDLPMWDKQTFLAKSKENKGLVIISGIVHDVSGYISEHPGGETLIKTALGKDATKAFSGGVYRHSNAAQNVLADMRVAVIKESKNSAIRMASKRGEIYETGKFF
Kind of assay: Growth inhibition of yeast strain expressing Ole1 as sole desaturase. The settings on record: yeast strain expressing Ole1 as sole desaturase. Type of assay: cell-based. Summed up:
as §1

For assay [4], the target named is T3, SCD5 (Homo sapiens, UniProt Q86SK9).
T3 construct: host or cells: S. cerevisiae ole1Δ strain (W303 pdr1Δ pdr3Δ background), plasmid pRS316 with TDH3 promoter and CYC1 terminator
T3 sequence (Q86SK9 1-330): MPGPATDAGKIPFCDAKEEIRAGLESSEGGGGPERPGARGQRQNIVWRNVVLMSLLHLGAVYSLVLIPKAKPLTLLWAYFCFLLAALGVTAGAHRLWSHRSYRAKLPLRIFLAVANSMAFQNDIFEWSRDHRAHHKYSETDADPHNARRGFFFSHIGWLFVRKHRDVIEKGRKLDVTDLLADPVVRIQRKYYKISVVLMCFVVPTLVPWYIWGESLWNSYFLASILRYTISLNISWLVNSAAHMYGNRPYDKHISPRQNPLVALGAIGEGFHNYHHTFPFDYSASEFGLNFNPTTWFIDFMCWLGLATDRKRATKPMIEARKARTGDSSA
As to the kind of experiment: Growth inhibition of humanized yeast strain expressing SCD5 as sole desaturase. The settings on record: humanized yeast strain expressing SCD5. The assay is classed as cell-based. Summed up:
as §1

In assay [5] the test system is yeast strains expressing the human α-synuclein. As to the kind of experiment: Yeast α-synuclein toxicity rescue assay (OD600 growth). The settings on record: 40 h; for EC50: read-out: α-Syn EC50; for Emax: read-out: α-Syn Emax.

A word on the EC50: it is the concentration needed to bring the measured effect to its halfway point. The term IC50 denotes the concentration that inhibits the measured activity by half. In the case of `O=C(NCC(=O)N1CCC(c2nc(-c3ccc4ccccc4n3)no2)CC1)c1ccccc1` [compound 79], the EC50 worked out at 18.8 µM in assay [1] and 9.91 µM in assay [5]. The figures for the Emax in assay [1] and in assay [5] were 631% and 627%, respectively. Moreover, the IC50 in assay [2], in assay [3] and in assay [4] was above 45 µM throughout.

On to `COc1ccc(-c2noc(C3CCN(C(=O)CNC(=O)c4ccc(C)cc4)CC3)n2)cc1OC` [compound 13], for which the EC50 came to 0.368 µM in assay [1] and 0.058 µM in assay [5]. Moreover, the Emax in assay [1] came out at 837%; in assay [5] it was 712%. Also, the IC50 in assay [2], in assay [3] and in assay [4] was above 45 µM throughout.

`Cc1ccc(-c2nc(C3CCN(C(=O)[C@H]4CC(=O)N(c5ccc(C)c(C)c5)C4)CC3)no2)cc1` (single isomer, unassigned) [compound 71]: the figures for the EC50 in assay [1] and in assay [5] were 8.97 µM and 8.09 µM, respectively. Further, the results for the Emax in assay [1] and in assay [5] were 235% and 151%, respectively. For the same compound, the IC50 in assay [2], in assay [3] and in assay [4] was above 45 µM throughout.

On to `COc1ccc(-c2noc(C3CCN(C(=O)CNC(=O)c4ccccc4)CC3)n2)cc1OC` [Compound 7], for which the EC50 in assay [1] stood at 0.176 µM; in assay [5], 0.04 µM. Also, the Emax stood at 782% in assay [1] and 594% in assay [5]. Also, the IC50 in assay [2] is 39.2 µM; in assay [3] it was above 45 µM; in assay [4], above 45 µM.

As for `COc1ccc(-c2noc(C3CCN(C(=O)CNC(=O)C4CCCCC4)CC3)n2)cc1OC` [Compound 48], in assay [1], the EC50 amounted to 2.94 µM and the Emax worked out at 874%. Also, in assay [2], it took 39.3 µM to reach half-maximal inhibition (IC50) and the “SCD1 % Max Inhibition” value was determined as 63.58%. Moreover, in assay [3], the IC50 was above 45 µM and the “OLE1 % Max Inhibition” value was found to be 8.16%. In addition, in assay [4], the IC50 is above 45 µM and the “SCD5 % Max Inhibition” value is reported as 75.26%. In addition, in assay [5], the half-maximal effective concentration (EC50) was 1.47 µM and the Emax came out at 615%.

For `COc1ccc(-c2noc(C3CCN(C(=O)Cc4ccccc4)CC3)n2)cc1OC` [Compound 44], in assay [1], the EC50 was 13.3 µM and the Emax came to 676%. In assay [2], the half-maximal inhibitory concentration (IC50) was above 45 µM and the “SCD1 % Max Inhibition” value was 17.96%. For the same compound, in assay [3], the IC50 was above 45 µM and the “OLE1 % Max Inhibition” value came out at 93.69%. Besides, in assay [4], the IC50 is above 45 µM and the “SCD5 % Max Inhibition” value is recorded as 10.99%. For the same compound, in assay [5], the EC50 is 10.9 µM and the Emax worked out at 579%.

As for `COc1ccc(-c2coc(C3CCN(C(=O)CNC(=O)c4ccccc4)CC3)n2)cc1OC` [Compound 37], in assay [1], the EC50 amounted to 6.53 µM and the Emax is 849%. In assay [2], the IC50 is above 45 µM and the “SCD1 % Max Inhibition” value is on record as 81.44%. In assay [3], the IC50 is above 45 µM and the “OLE1 % Max Inhibition” value is on record as 9.99%. For the same compound, in assay [4], the IC50 was above 45 µM and the “SCD5 % Max Inhibition” value worked out at 74.18%. Moreover, in assay [5], the 50% effective concentration (EC50) is 2.21 µM and the Emax was 608%.

On to `COc1ccc(-c2noc(C3CCN(C(=O)[C@H]4CC(=O)N(c5ccc(C)c(C)c5)C4)CC3)n2)cc1OC` (single isomer, unassigned) [compound 67], for which the figures for the EC50 in assay [1] and in assay [5] were 17.4 µM and 7.38 µM, respectively. In addition, the Emax in assay [1] came to 420%; in assay [5], 255%. Moreover, the IC50 in assay [2] was 40.7 µM; in assay [3], above 45 µM; in assay [4], above 45 µM.

Regarding `COc1ccc(-c2noc(C3CCN(C(=O)[C@H]4CC(=O)N(c5ccc(C)c(C)c5)C4)CC3)n2)cc1` [Compound 64], in assay [1], the EC50 stood at 15.3 µM and the Emax stood at 330%. Further, in assay [2], the IC50 is above 45 µM and the “SCD1 % Max Inhibition” value came out at 32.39%. Besides, in assay [3], the IC50 was above 45 µM and the “OLE1 % Max Inhibition” value was 115.95%. Moreover, in assay [4], the IC50 was above 45 µM and the “SCD5 % Max Inhibition” value amounted to 42.05%. Also, in assay [5], the EC50 is 13.7 µM and the Emax is 228%.

As for `COc1ccc(-c2nc(C3CCN(C(=O)CNC(=O)c4ccccc4)CC3)no2)cc1OC` [Compound 36], in assay [1], the EC50 came out at 2.15 µM and the Emax is 908%. For the same compound, in assay [2], half-maximal inhibition (IC50) was put at 30 µM and the “SCD1 % Max Inhibition” value turned out to be 64.67%. For the same compound, in assay [3], the IC50 is above 45 µM and the “OLE1 % Max Inhibition” value came out at 17.70%. In addition, in assay [4], the IC50 is above 45 µM and the “SCD5 % Max Inhibition” value stood at 63.86%. Moreover, in assay [5], the EC50 was determined as 1.76 µM and the Emax came out at 629%.

Regarding `COc1ccc(-c2noc(C3CCN(C(=O)CNC(=O)c4cccc(Cl)c4)CC3)n2)cc1OC` [compound 26], the EC50 in assay [1] is 0.377 µM; in assay [5], 0.042 µM. Moreover, the Emax in assay [1] amounted to 811%; in assay [5], 608%. Also, the IC50 was above 45 µM in assay [2], above 45 µM in assay [3] and 24.5 µM in assay [4].

Take `O=C(NCC(=O)N1CCC(c2nc(-c3ccc(F)c(F)c3)no2)CC1)c1ccccc1` [compound 24]: the values for the EC50 in assay [1] and in assay [5] were 13.3 µM and 5.13 µM, respectively. Besides, the values for the Emax in assay [1] and in assay [5] were 301% and 76%, respectively. The IC50 was above 45 µM in assay [2], above 45 µM in assay [3] and 30 µM in assay [4].

As for `CCOc1ccc(-c2noc(C3CCN(C(=O)N4CCCCC4)CC3)n2)cc1OC` [Compound 53], in assay [1], the EC50 was 16.6 µM and the Emax came to 296%. For the same compound, in assay [2], the IC50 was above 45 µM and the “SCD1 % Max Inhibition” value is given as 79.96%. For the same compound, in assay [3], the IC50 was above 45 µM and the “OLE1 % Max Inhibition” value is 98.51%. Also, in assay [4], the IC50 was above 45 µM and the “SCD5 % Max Inhibition” value came to 2.94%. In assay [5], the EC50 was 6.6 µM and the Emax was found to be 81%.

Take `COc1ccc(-c2noc(C3CCN(C(=O)C4CC(=O)N(c5ccc(C)c(C)c5)C4)CC3)n2)cc1OC` (stereo not shown) [compound 19]: the EC50 amounted to 5.63 µM in assay [1] and 2.43 µM in assay [5]. In addition, the Emax in assay [1] worked out at 891%; in assay [5], 574%. The IC50 in assay [2], in assay [3] and in assay [4] was above 45 µM each time.

Consider `COc1ccc(-c2noc(C3CCN(C(=O)CNC(=O)c4ccc(Cl)cc4)CC3)n2)cc1OC` [compound 27], for which the figures for the EC50 in assay [1] and in assay [5] were 0.39 µM and 0.059 µM, respectively. The Emax turned out to be 761% in assay [1] and 589% in assay [5]. Besides, the IC50 in assay [2], in assay [3] and in assay [4] was above 45 µM each time.

With `COc1ccc(-c2noc(C3CCN(C(=O)/C=C/C(=O)c4ccccc4)CC3)n2)cc1OC` [Compound 33], in assay [1], the EC50 is 0.717 µM and the Emax was 281%. Also, in assay [2], the IC50 was above 45 µM and the “SCD1 % Max Inhibition” value came out at 8.14%. Further, in assay [3], the 50% inhibitory concentration (IC50) was above 45 µM and the “OLE1 % Max Inhibition” value is 1.55%. In addition, in assay [4], the IC50 was above 45 µM and the “SCD5 % Max Inhibition” value came to 24.10%. Also, in assay [5], the EC50 came out at 0.111 µM and the Emax is 260%.

For the origin of these results see US11873298B2, “Compounds and uses thereof” (JANSSEN PHARMACEUTICA NV, priority 2017, dated 2024).
